Experimental data as given in patent publication US20240376138A1, “Crystal Forms, Preparation Method And Application Of Aryl Phosphine Oxide Compound” (Chengdu Di'Ao Jiuhong Pharmaceutical Factory, priority 2021, published 2024).

Key:
[1] = target: Ba/F3 cells expressing EGFR-C797S/Del19 (Homo sapiens, UniProt P00533, C797S, cells depend on it, form not given); test: Cell anti-proliferation experiment 1, BaF3 cells expressing EGFR mutation (CellTiter-Glo); type: cell-based; conditions: 3 days, CTG, read-out: EGFR-C797S-Del19 IC50
[2] = target: T1, BaF3 cells expressing EML-4-ALK-WT (Homo sapiens, UniProt Q9UM73); test: Cell anti-proliferation experiment 3, BaF3 cells with ALK fusion (CellTiter-Glo); type: cell-based; conditions: 3 days, CTG, read-out: EML-4-ALK-WT IC50
T1 construct: fused on or other part: Q9HC35 (Echinoderm microtubule-associated protein-like 4)
From the text: (§1) • 1. […] Test information: • 2.1. Cell information: Cell lines containing ALK mutations in BaF3 were from WuXiAppTec: • Ba/F3-cell lines expressing ALK gene fusion and mutation • Ba/F3-EML-4-ALK-WT • Ba/F3-EML-4-ALK-L 1196M • 2.2.
(§2) Test results: The IC50 values of the compound DA and the control compound against BaF3 cells expressing EML-4-ALK-WT and EML-4-ALK-L1196M are shown in Table 22. • 4.

[3] = target: Ba/F3 cells expressing EGFR-WT (Homo sapiens, UniProt P00533); test: Cell anti-proliferation experiment 1, BaF3 EGFR-WT wild-type cell line (CellTiter-Glo); type: cell-based; conditions: read-out: EGFR-WT IC50
Protocol: (§6) Test purpose: to detect the effect of the test compounds on the proliferation of cell lines containing EGFR mutations in BaF3 cells • 2. […] Cell information: Cell lines containing EGFR mutations in BaF3 were from WuXiAppTec: • BaF3-cell lines expressing EGFR mutation • EGFR-T790M/Del19 • EGFR-C797S/Del19 • EGFR-T790M/L858R • EGFR-C797S/L858R • EGFR-C797S/T790M/L858R • EGFR-C797S/T790M/Del19 • EGFR-WT wild-type cell lines • 2.2. Test method • Day 0: Cells were seeded in a plate. • a. An ultraviolet lamp of a biological safety cabinet was turned on and countdown was started for 30 minutes. • b. A medium was preheated in a 37° C. water bath. • c. After the ultraviolet irradiation was finished, the biological safety cabinet was opened. The pre-heated medium, PBS, and the like, were wiped with alcohol and placed in the biological safety cabinet. • d. The cells were removed from an incubator, blown to a uniform cell suspension in the biological safety cabinet and counted. • e. Based on the cell counting results, the cell suspension was adjusted to a density of 3,000 cells per well and 50 microliters per well, and seeded in 384-well plates. • f. The cells after seeding were incubated in a 5% CO2 incubator at 37° C. for 3 hours. • g. Compounds were added to the cell plates using Tecan (liquid workstation). • Day 3: the cell plate added with the compounds and CTG (CellTiter-Glo chemiluminescence cell activity assay reagent) were equilibrated at room temperature, 25 μl of CTG was added to each well, centrifuged at 1,000 rpm for 1 minute, and shaken for 1-2 minutes. And centrifuging for 1 minute at 1,000 rpm again, the cell plates were allowed to settle for 10 minutes to detect a signal value in Envision. The IC50 of each compound was calculated by computer fitting with XL-Fit analysis software (the IC50 of the compound on the cell activity inhibition could be obtained by reading the concentrations of the corresponding compounds at 500 inhibition rate). Inhibition rate % C (reading value of the control group without drug−reading value of the sample)/reading value of the control group without drug×100. • 3.

[4] = target: Ba/F3 cells expressing EGFR-C797S/T790M/Del19 (Homo sapiens, UniProt P00533, T790M/C797S, cells depend on it, form not given); test: Cell anti-proliferation experiment 1, BaF3 cells expressing EGFR mutation (CellTiter-Glo); type: cell-based; conditions: read-out: EGFR-C797S/T790M/Del19 IC50
[5] = target: Ba/F3 cells expressing EGFR-C797S/T790M/L858R (Homo sapiens, UniProt P00533, T790M/C797S/L858R, cells depend on it); test: as above; type: cell-based; conditions: read-out: EGFR-C797S/T790M/L858R IC50
Protocol: as §6

[6] = target: Ba/F3 cells expressing EGFR-T790M/Del19 (Homo sapiens, UniProt P00533, T790M, cells depend on it, form not given); test: as above; type: cell-based; conditions: 3 days, CTG, read-out: EGFR-T790M/Del19 IC50
[7] = target: T2, BaF3 cells expressing EML-4-ALK-L1196M (Homo sapiens, UniProt Q9UM73, L1196M, cells depend on it); test: Cell anti-proliferation experiment 3, BaF3 cells with ALK fusion and mutation (CellTiter-Glo); type: cell-based; conditions: 3 days, CTG, read-out: EML-4-ALK-L1196M IC50
T2 construct: fused on or other part: Q9HC35 (Echinoderm microtubule-associated protein-like 4)
From the text: as §1, §2

[8] = target: Ba/F3 cells expressing EGFR-T790M/L858R (Homo sapiens, UniProt P00533, T790M/L858R, cells depend on it); test: Cell anti-proliferation experiment 1, BaF3 cells expressing EGFR mutation (CellTiter-Glo); type: cell-based; conditions: 3 days, CTG, read-out: EGFR-T790M/L858R IC50
Protocol: (§7) Test purpose: to detect the effect of the test compounds on the proliferation of cell lines containing EGFR mutations in BaF3 cells • 2. Test information: • 2.1. Cell information: Cell lines containing EGFR mutations in BaF3 were from WuXiAppTec: • BaF3-cell lines expressing EGFR mutation • EGFR-T790M/Del19 • EGFR-C797S/Del19 • EGFR-T790M/L858R • EGFR-C797S/L858R • EGFR-C797S/T790M/L858R • EGFR-C797S/T790M/Del19 • EGFR-WT wild-type cell lines • 2.2. Test method • Day 0: Cells were seeded in a plate. • a. An ultraviolet lamp of a biological safety cabinet was turned on and countdown was started for 30 minutes. • b. A medium was preheated in a 37° C. water bath. • c. After the ultraviolet irradiation was finished, the biological safety cabinet was opened. […] The cells were removed from an incubator, blown to a uniform cell suspension in the biological safety cabinet and counted. • e. […] The IC50 of each compound was calculated by computer fitting with XL-Fit analysis software (the IC50 of the compound on the cell activity inhibition could be obtained by reading the concentrations of the corresponding compounds at 500 inhibition rate). Inhibition rate % C (reading value of the control group without drug−reading value of the sample)/reading value of the control group without drug×100. • 3.

[9] = target: Ba/F3 cells expressing EGFR-C797S/L858R (Homo sapiens, UniProt P00533, C797S/L858R, cells depend on it); test: as above; type: cell-based; conditions: 3 days, CTG, read-out: EGFR-C797S/L858R IC50
Protocol: as §7

[10] = High temperature and illumination stability test of crystal forms 1-3; type: physicochemical; conditions: Illumination (illuminance: 5000Lx), Day 0 (Table 18-1)
[11] = as above; type: physicochemical; conditions: for Traits: Day 10 (Table 18-1)
From the text: The stabilities of crystal form 2 and crystal form 3 under high temperature, illumination and long-term conditions were investigated.

[12] = Stability test 3: long-term and accelerated conditions; type: physicochemical; conditions: Long-term (25° C. ± 2° C., 65% RH ± 10% RH)
[13] = Comparative experiment of hygroscopicity (Chinese Pharmacopoeia 2020); type: physicochemical; conditions: for Hygroscopicity: class by weight gain after 24 h; for Weight gain % after 24 h: hygroscopicity test
From the text: The description of hygroscopic characteristics and the definition of hygroscopic weight gain are as follows: • Deliquescence: absorbs sufficient amount of water to form a liquid; • Very hygroscopic: the weight gain by hygroscopy is not less than 15%; • Hygroscopic: the weight gain by hygroscopy is less than 15% but not less than 2%; • Slightly hygroscopic: the weight gain by hygroscopy is less than 2% but not less than 0.2%; and
Not or almost not hygroscopic: the weight gain by hygroscopy is less than 0.2% from hygroscopicity.

[14] = Solubility test; type: physicochemical; conditions: Solution with pH = 6.8, 25° C.±2° C.
[15] = system: PC9 cells expressing EGFR-Del19; test: Cell anti-proliferation experiment 2, PC9 cells (SRB); type: cell-based; conditions: Homo sapiens, PC-9, 72 h, read-out: EGFR-Del 19 GI50
Protocol: (§3) • 1. […] Test information: • 2.1. Cell information: PC9 cells carried EGFR Del19 mutation, and the rest of mutant cells were constructed from PC9 cells according to the conventional stable cell strain construction method. • PC9-cell lines expressing EGFR mutation • EGFR-Del19 • EGFR-T790M/Del19 • EGFR-C797S/T790M/Del19 • 2.2. Test method:
(§4) The test compounds were diluted by 5 times each time with an appropriate concentration as an initial concentration of the test, and totally diluted into 6 concentration gradients. […] SRB (Sulforhodamine B) detection method was used, and the optical density value of each well was read by a microplate reader at 490 nm wavelength.
(§5) The optical density of the cells at the drug action of 0 was set as a Tz value representing the value of the cells at the time that the drug was added. The optical density value of the cells after the solvent control DMSO acted for 72 hours was set as a C value. The optical density of the cells on which the test compounds acted for 72 hours was set as a Ti value. The response of the cells to the drug was calculated according to a method proposed by the U.S. NIH-NCI (National Institutes of Health-National Institute of Cancer): When Ti is more than or equal to Tz, the value was [(Ti−Tz)/(C−Tz)]×100; and when Ti is less than Tz, the value was [(Ti−Tz)/Tz]×100.

[16] = system: PC9 cells expressing EGFR-T790M/Del19; test: as above; type: cell-based; conditions: Homo sapiens, PC-9, 72 h, read-out: EGFR-T790M/Del19 GI50
Protocol: as §3, §4, §5

[17] = system: PC9 cells expressing EGFR-C797S/T790M/Del19; test: as above; type: cell-based; conditions: Homo sapiens, PC-9, 72 h, read-out: EGFR-C797S/T790M/Del19 GI50
Protocol: as §3, §4, §5

[18] = High temperature (50° C.), Day 10
[19] = High temperature (50° C.), Day 30
[20] = Illumination (illuminance: 5000Lx), Day 10
[21] = Illumination (illuminance: 5000Lx)
[22] = Illumination (illuminance: 5000Lx), Day 30

Ba/F3 cells expressing EGFR-C797S/T790M/Del19, sequence (P00533 with tags, fused parts or gaps DEL746-750/T790M/C797S, form open): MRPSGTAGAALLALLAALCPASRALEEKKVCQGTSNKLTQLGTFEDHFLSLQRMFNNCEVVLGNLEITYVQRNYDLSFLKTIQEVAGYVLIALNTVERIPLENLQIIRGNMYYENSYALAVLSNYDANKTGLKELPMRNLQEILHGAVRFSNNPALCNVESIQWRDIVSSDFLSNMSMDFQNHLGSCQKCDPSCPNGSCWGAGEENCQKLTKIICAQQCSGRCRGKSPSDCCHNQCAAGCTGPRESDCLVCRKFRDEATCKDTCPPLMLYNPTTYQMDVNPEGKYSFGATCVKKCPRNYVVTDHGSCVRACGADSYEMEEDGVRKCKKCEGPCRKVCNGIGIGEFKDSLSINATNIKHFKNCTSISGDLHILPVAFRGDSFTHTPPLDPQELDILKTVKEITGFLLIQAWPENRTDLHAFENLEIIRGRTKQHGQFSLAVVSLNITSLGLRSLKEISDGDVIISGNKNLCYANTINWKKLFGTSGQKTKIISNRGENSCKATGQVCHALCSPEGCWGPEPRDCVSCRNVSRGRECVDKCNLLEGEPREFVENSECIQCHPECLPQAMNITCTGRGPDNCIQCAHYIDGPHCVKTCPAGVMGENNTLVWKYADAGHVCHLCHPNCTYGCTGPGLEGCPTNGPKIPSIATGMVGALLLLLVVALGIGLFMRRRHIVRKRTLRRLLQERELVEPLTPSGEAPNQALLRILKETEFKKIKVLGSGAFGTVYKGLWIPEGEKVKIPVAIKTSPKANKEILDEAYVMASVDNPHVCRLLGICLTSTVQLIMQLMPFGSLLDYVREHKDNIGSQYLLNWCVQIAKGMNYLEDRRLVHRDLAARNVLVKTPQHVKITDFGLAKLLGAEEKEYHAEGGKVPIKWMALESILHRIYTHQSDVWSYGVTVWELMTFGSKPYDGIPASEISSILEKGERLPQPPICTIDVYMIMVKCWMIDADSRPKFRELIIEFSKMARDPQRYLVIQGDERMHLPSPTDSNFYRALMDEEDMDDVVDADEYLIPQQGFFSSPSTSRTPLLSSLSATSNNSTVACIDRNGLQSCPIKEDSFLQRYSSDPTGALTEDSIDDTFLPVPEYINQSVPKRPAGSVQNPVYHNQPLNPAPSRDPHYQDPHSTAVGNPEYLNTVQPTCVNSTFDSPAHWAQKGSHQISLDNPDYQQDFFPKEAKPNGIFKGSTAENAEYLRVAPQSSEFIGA
T2 sequence (Q9UM73 whole entry L1196M, the tested form may be a part): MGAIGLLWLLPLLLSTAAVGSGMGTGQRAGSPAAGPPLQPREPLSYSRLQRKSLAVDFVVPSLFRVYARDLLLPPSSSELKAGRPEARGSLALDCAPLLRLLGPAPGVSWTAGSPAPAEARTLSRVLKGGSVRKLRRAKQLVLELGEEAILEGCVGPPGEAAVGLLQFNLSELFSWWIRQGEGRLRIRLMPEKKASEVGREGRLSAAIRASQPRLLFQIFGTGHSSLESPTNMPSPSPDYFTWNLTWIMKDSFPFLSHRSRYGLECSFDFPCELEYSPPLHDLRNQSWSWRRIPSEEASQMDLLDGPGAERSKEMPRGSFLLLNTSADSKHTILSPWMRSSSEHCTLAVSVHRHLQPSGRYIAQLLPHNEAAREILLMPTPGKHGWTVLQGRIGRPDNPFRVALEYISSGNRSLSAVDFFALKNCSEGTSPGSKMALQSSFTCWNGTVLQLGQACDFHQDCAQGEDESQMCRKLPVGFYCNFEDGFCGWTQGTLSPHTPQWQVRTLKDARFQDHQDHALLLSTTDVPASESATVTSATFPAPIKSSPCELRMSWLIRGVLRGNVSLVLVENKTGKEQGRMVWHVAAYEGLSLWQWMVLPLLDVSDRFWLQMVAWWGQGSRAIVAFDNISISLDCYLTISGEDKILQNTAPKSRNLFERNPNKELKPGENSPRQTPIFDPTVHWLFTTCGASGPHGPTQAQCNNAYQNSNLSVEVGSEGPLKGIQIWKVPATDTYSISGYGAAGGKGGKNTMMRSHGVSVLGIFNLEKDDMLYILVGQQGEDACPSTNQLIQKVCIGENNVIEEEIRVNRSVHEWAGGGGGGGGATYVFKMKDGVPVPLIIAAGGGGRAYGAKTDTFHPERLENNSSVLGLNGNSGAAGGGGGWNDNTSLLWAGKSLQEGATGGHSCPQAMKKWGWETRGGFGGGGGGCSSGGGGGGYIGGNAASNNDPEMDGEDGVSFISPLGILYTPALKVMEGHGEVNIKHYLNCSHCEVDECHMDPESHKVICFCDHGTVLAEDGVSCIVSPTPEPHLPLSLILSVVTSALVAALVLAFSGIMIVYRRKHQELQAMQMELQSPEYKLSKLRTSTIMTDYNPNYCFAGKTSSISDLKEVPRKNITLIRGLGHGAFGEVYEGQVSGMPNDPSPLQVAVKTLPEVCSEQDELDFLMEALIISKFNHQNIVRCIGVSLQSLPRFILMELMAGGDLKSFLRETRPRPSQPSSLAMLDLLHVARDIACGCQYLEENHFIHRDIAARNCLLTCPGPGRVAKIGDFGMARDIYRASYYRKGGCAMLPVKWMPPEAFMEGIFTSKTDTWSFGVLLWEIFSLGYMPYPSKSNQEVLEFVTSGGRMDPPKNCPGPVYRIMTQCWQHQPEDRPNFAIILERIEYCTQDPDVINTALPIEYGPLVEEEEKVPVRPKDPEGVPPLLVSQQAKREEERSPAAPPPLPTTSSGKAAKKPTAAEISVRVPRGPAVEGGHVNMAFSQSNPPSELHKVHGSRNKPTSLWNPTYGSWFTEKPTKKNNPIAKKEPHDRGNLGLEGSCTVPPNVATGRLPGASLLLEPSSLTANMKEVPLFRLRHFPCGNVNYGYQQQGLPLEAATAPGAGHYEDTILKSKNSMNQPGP
Ba/F3 cells expressing EGFR-T790M/Del19, sequence (P00533 with tags, fused parts or gaps DEL746-750/T790M, form open): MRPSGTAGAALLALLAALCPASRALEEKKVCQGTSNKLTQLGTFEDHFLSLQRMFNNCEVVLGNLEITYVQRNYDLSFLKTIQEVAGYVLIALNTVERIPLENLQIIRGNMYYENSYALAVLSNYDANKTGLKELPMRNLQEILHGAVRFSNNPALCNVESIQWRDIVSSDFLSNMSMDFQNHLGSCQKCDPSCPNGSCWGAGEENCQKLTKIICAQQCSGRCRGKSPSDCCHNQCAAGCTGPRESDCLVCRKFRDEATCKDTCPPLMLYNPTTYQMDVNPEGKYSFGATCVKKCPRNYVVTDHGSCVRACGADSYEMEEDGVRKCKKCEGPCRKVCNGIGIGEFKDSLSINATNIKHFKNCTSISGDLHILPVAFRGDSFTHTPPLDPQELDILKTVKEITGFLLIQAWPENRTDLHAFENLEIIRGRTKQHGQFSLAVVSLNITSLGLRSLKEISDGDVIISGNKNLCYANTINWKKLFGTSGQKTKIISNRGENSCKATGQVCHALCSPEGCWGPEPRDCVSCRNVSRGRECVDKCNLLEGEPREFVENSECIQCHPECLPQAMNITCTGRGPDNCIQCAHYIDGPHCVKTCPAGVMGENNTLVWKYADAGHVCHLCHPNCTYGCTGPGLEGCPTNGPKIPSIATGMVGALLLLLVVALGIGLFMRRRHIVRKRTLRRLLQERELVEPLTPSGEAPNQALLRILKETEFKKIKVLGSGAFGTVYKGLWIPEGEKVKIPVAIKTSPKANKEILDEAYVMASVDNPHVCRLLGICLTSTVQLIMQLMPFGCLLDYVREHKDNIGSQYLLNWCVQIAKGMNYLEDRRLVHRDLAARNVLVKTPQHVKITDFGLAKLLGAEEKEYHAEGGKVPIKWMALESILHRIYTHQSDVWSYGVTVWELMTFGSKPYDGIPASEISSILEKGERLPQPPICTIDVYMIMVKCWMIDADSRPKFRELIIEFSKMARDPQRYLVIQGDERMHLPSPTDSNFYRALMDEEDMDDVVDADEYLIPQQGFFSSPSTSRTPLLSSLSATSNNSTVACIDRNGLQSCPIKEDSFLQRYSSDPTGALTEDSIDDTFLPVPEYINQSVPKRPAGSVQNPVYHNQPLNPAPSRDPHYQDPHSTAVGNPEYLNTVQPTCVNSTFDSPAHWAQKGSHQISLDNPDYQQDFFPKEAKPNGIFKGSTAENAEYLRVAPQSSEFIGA
T1 sequence (Q9UM73 whole entry, change not shown, the tested form may be a part): as the sequence (Q9UM73 whole entry L1196M, the tested form may be a part) above, with M1196L counted along it

Compound	GI50 [1] [nM]	GI50 [2] [nM]	GI50 [3] [nM]	GI50 [4] [nM]	GI50 [5] [nM]	GI50 [6] [nM]	GI50 [7] [nM]	Traits [10]	purity ([11]; Day 0)	the number of impurities above the reporting limit ([11]; Day 0)	total impurities ([11]; Day 0)	purity [11, 18]	the number of impurities above the reporting limit [11, 18]	total impurities [11, 18]	purity [11, 19]	the number of impurities above the reporting limit [11, 19]	total impurities [11, 19] [%]	purity [11, 20]	the number of impurities above the reporting limit [11, 20]	total impurities [11, 20]	also measured
COc1cc(N2CCC(N3CCN(C)CC3)CC2)c(C)cc1Nc1ncc(Br)c(Nc2ccc(C)cc2P(C)(C)=O)n1 [Crystal form 2, (2-((5-bromo-2-((2-methoxy-5-methyl-4-(4-(4-methylpiperazin-1-yl)piperidin-1-yl)phenyl)amino)pyrimidin-4-yl)amino)-5-methylphenyl)dimethylphosphorus oxide]	–	–	–	–	–	–	–	off-white	purity: 99.37%	limit is 7 total	impurities: 0.63%	99.20% the	limit is 9 total	impurities: 0.80%	purity: 98.72%;	limit is 13;	1.28	99.01% the	limit is 10 total	impurities: 0.99%	total impurities ([11]; Day 0, listed as crystal form 2): 0.63%; Traits [11, 21]: light yellow; purity [11, 22]: purity: 98.0%;; the number of impurities above the reporting limit [11, 22]: limit is 14;; total impurities [11, 22]: 2.0%; total impurities ([11]; Illumination (illuminance: 5000Lx), Day 30, listed as crystal form 2): 2.0%; Traits ([12]; Day 0): Off-white; Traits ([12]; Day 30): Light yellow; Hygroscopicity [13]: Slightly hygroscopic (the weight gain by hygroscopy is less than 2% but not less than 0.2%); Weight gain % after 24 h [13]: 1.35%; Solubility for 24 h [14]: 1360 µg/mL
COc1cc(N2CCC(N3CCN(C)CC3)CC2)c(C)cc1Nc1ncc(Br)c(Nc2ccc(C)cc2P(C)(C)=O)n1 [Crystal form 3, (2-((5-bromo-2-((2-methoxy-5-methyl-4-(4-(4-methylpiperazin-1-yl)piperidin-1-yl)phenyl)amino)pyrimidin-4-yl)amino)-5-methylphenyl)dimethylphosphorus oxide]	–	–	–	–	–	–	–	off-white	purity: 99.44%;	limit is 7;	0.56%	99.28%; the	limit is 7; total	impurities: 0.72%	98.89%; the	limit is 10;	1.11	purity: 98.83%;	limit is 10;	1.17%	total impurities ([11]; Day 0, listed as crystal form 3): 0.56%; Traits [11, 21]: light yellow; purity [11, 22]: purity: 96.95%;; the number of impurities above the reporting limit [11, 22]: limit is 17;; total impurities [11, 22]: 3.05%; total impurities ([11]; Illumination (illuminance: 5000Lx), Day 30, listed as crystal form 3): 3.05%; Traits ([12]; Day 0): Off-white; Traits ([12]; Day 30): Light yellow; Hygroscopicity [13]: Slightly hygroscopic (the weight gain by hygroscopy is less than 2% but not less than 0.2%); Weight gain % after 24 h [13]: 1.49%; Solubility for 24 h [14]: 1230 µg/mL
COc1cc(N2CCC(N3CCN(C)CC3)CC2)ccc1Nc1ncc(Cl)c(Nc2ccccc2P(C)(C)=O)n1 [Brigatinib (Brigatinib), Brigatinib]	–	–	–	–	–	–	–	–	–	–	–	–	–	–	–	–	–	–	–	–	GI50 [15]: 287 nM; GI50 [16]: 256 nM; GI50 [17]: 516 nM

Continued, in another order:

GI50 [1] [nM]	GI50 [2] [nM]	GI50 [3] [nM]	GI50 [4] [nM]	GI50 [5] [nM]	GI50 [6] [nM]	GI50 [7] [nM]	Compound	Traits [10]	purity ([11]; Day 0)	the number of impurities above the reporting limit ([11]; Day 0)	total impurities ([11]; Day 0)	purity [11, 18]	the number of impurities above the reporting limit [11, 18]	total impurities [11, 18]	purity [11, 19]	the number of impurities above the reporting limit [11, 19]	total impurities [11, 19] [%]	purity [11, 20]	the number of impurities above the reporting limit [11, 20]	total impurities [11, 20]	also measured
177	43.6	1760	221	583	172	47.4	COc1cc(N2CCC(N3CCN(C)CC3)CC2)c(C)cc1Nc1ncc(Cl)c(Nc2ccccc2P(C)(C)=O)n1 [Control compound 2]	–	–	–	–	–	–	–	–	–	–	–	–	–	–
203	39.4	2340	192	566	216	50.2	COc1cc(N2CCC(N3CCN(C)CC3)CC2)ccc1Nc1ncc(Cl)c(Nc2ccc(C)cc2P(C)(C)=O)n1 [Control compound 3]	–	–	–	–	–	–	–	–	–	–	–	–	–	–
184	34.1	1600	180	626	166	65	COc1cc(N2CCC(N3CCN(C)CC3)CC2)c(C)cc1Nc1ncc(Cl)c(Nc2cccc(C)c2P(C)(C)=O)n1 [Control compound 1]	–	–	–	–	–	–	–	–	–	–	–	–	–	GI50 [8]: 156 nM; GI50 [9]: 573 nM
